# According to ChEMBL document CHEMBL1770059, “Identification of chemicals to inhibit the kinase activity of leucine-rich repeat kinase 2 (LRRK2), a Parkinson's disease-associated protein” (Bioorg Med Chem Lett, 2011):
# Target: T1, Serine/threonine-protein kinase TAO2 (Homo sapiens) (UniProt Q9UL54)
# T1 sequence (whole entry): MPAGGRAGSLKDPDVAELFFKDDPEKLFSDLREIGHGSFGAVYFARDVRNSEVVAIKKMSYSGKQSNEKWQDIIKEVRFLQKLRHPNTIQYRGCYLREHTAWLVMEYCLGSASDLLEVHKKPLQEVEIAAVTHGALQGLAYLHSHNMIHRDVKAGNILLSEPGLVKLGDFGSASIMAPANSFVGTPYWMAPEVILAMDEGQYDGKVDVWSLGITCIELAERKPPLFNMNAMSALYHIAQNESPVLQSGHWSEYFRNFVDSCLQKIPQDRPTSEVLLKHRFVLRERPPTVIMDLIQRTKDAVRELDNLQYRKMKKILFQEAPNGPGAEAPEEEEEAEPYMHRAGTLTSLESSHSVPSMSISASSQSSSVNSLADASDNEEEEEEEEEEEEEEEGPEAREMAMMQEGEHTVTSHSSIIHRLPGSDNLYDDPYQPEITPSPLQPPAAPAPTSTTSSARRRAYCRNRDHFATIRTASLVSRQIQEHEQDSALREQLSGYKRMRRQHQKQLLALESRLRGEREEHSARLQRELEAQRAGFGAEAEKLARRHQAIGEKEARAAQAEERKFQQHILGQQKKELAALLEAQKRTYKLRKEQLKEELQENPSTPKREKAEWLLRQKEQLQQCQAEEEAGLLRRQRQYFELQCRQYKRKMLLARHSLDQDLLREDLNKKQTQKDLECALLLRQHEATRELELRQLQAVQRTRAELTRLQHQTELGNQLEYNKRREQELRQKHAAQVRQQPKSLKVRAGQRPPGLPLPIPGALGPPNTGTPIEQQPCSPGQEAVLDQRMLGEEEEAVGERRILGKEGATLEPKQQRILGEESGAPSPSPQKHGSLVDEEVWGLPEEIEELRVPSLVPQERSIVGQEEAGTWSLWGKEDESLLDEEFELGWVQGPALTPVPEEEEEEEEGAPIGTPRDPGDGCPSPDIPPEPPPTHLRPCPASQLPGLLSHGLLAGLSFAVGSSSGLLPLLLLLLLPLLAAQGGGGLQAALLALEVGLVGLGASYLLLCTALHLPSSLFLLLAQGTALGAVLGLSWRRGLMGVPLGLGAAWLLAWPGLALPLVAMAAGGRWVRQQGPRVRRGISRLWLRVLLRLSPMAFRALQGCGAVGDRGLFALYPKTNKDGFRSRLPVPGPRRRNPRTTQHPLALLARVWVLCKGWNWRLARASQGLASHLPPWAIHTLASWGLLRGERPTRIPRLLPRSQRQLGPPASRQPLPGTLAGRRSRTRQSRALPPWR
# Test: Inhibition of TAO2 assessed as residual activity of enzyme at 25 uM
compound,measurement,value
Cc1cc(N/N=C/c2ccncc2)nc2ccccc12,Activity,84%
